# Test results taken from US9139587B2, “N1-pyrazolospiroketone acetyl-CoA carboxylase inhibitors” (Pfizer Inc., priority 2009, dated 2015).
# Legend:
# [1] = molecular target: T1, recombinant human ACC1 (rhACC1) (Homo sapiens, UniProt Q13085, DEL44-44); assay: recombinant hACC1 Transcreener assay (direct inhibition of ACC1 activity); assay type: biochemical; settings: Transcreener ADP detection FP assay, 50 μM ATP, 30 μM acetyl-CoA, 120 min at 25° C.
# T1 construct: recombinant baculovirus containing full length human ACC1 cDNA; made in house; host or cells: SF9 insect cells (baculovirus)
# Method: For example direct inhibition of ACC activity, for the compound of Formula (1) was determined using preparations of recombinant human ACC1 (rhACC1) and recombinant human ACC2 (rhACC2). Representative sequences of the recombinant human ACC1 and ACC2 that can be used in the assay are provided in FIG. 1 (SEQ ID NO. 1) and FIG. 2 (SEQ. ID NO. 2), respectively. Preparation of rhACC1. Two liters of SF9 cells, infected with recombinant baculovirus containing full length human ACC1 cDNA, were suspended in ice-cold lysis buffer (25 mM Tris, pH 7.5; 150 mM NaCl; 10% glycerol; 5 mM imidazole (EMD Bioscience; Gibbstown, N.J.); 2 mM TCEP (BioVectra; Charlottetown, Canada); Benzonase nuclease (10000 U/100 g cell paste; Novagen; Madison, Wis.); EDTA-free protease inhibitor cocktail (1 tab/50 mL; Roche Diagnostics; Mannheim, Germany). Cells were lysed by 3 cycles of freeze-thaw and centrifuged at 40,000×g for 40 minutes (4° C.). Supernatant was directly loaded onto a HisTrap FF crude column (GE Healthcare; Piscataway, N.J.) and eluted with an imidazole gradient up to 0.5 M over 20 column volumes (CV). ACC1-containing fractions were pooled and diluted 1:5 with 25 mM Tris, pH 7.5, 2 mM TCEP, 10% glycerol and direct loaded onto a CaptoQ (GE Healthcare) column and eluted with an NaCl gradient up to 1 M over 20 CV's. Phosphate groups were removed from purified ACC1 by incubation with lambda phosphatase (100 U/10 μM target protein; New England Biolabs; Beverly, Mass.) for 14 hours at 4° C.; okadaic acid was added (1 μM final concentration; Roche Diagnostics) to inhibit the phosphatase. Purified ACC1 was exchanged into 25 mM Tris, pH 7.5, 2 mM TCEP, 10% glycerol, 0.5 M NaCl by 6 hour dialysis at 4° C. Aliquots were prepared and frozen at −80° C. […] The final conditions for the assay were 50 mM HEPES, pH 7.2, 10 mM MgCl2, 7.5 mM tripotassium citrate, 2 mM DTT, 0.1 mg/mL BSA, 30 μM acetyl-CoA, 50 μM ATP, and 10 mM KHCO3 Typically, a 10 μl reaction was run for 120 min at 25° C., and 10 μl of Transcreener stop and detect buffer was added and the combination incubated at room temp for an additional 1 hour. The data was acquired on a Envision Fluorescence reader (Perkinelmer) using a 620 excitation Cy5 FP general dual mirror, 620 excitation Cy5 FP filter, 688 emission (S) and a 688 (P) emission filter.
# [2] = molecular target: T2, recombinant human ACC2 (rhACC2) (Homo sapiens, UniProt O00763, V2141I); assay: recombinant hACC2 Transcreener assay (direct inhibition of ACC2 activity); assay type: biochemical; settings: Transcreener ADP detection FP assay, 50 μM ATP, 30 μM acetyl-CoA, 50 min at 25° C.
# T2 construct: a full length Cytomax clone of ACC2 was purchased from Cambridge Bioscience Limited; made in house; host or cells: CHO cells (tetracycline-induced, pcDNA5 FRT TO-TOPO)
# T2 sequence (O00763 whole entry V2141I): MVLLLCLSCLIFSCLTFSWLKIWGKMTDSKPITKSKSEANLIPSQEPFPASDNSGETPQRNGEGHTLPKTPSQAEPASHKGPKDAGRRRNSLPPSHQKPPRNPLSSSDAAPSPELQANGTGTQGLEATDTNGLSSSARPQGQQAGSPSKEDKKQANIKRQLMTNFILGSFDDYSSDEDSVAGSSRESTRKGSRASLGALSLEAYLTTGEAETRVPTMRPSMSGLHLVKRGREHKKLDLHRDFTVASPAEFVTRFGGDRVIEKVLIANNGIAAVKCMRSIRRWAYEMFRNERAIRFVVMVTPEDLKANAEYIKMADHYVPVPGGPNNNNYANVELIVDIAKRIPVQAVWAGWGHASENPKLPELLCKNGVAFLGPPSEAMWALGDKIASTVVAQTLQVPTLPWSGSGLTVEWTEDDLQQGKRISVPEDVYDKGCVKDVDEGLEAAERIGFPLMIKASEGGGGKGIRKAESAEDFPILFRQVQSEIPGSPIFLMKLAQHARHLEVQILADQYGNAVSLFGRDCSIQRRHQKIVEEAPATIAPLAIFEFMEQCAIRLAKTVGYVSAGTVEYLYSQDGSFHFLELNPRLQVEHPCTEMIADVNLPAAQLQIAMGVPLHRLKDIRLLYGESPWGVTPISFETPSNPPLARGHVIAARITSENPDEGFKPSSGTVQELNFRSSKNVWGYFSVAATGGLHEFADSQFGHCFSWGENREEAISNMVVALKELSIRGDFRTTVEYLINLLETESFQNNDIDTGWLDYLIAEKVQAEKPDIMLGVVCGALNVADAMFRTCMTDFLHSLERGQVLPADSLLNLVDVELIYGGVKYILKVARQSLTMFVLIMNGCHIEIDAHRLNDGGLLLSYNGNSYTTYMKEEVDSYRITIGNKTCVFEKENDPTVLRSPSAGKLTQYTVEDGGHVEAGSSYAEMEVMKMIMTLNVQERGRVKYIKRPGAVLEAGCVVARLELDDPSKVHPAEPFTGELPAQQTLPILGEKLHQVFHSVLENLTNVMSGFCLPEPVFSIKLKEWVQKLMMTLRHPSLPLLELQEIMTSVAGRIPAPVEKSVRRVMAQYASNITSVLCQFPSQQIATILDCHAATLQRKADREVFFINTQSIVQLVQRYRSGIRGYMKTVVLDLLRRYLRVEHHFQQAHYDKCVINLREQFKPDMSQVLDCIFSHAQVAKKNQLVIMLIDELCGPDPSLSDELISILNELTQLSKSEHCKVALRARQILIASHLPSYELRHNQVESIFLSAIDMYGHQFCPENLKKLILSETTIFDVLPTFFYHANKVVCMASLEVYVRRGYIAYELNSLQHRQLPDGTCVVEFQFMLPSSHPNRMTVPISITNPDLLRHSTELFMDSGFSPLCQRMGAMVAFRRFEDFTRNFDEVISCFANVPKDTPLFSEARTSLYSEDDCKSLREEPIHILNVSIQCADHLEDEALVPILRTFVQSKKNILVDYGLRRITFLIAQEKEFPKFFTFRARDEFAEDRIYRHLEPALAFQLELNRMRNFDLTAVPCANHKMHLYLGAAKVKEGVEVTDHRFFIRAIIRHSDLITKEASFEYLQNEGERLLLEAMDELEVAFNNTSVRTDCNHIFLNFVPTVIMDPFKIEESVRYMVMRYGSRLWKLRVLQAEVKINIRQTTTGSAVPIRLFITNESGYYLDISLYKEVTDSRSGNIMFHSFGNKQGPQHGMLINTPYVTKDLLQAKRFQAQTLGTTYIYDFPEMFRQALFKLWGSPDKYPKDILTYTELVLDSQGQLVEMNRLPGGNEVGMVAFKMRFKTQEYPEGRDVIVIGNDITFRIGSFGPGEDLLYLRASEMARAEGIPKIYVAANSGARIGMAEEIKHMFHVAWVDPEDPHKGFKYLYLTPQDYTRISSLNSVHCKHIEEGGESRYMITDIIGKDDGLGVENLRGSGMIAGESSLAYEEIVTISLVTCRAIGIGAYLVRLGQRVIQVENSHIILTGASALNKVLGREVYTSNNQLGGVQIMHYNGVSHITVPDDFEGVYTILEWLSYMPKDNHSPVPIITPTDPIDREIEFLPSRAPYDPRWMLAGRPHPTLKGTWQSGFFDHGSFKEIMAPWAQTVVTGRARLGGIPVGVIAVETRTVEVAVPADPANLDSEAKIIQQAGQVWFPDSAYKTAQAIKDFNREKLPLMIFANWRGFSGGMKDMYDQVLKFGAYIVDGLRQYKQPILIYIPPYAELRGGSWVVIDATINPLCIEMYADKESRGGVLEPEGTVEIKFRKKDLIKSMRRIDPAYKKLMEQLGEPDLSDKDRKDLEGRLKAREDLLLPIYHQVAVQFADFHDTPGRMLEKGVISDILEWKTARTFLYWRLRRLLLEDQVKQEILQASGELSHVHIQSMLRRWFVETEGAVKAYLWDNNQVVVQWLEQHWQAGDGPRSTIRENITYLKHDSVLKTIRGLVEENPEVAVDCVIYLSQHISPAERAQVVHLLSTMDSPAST
# Method: For example direct inhibition of ACC activity, for the compound of Formula (1) was determined using preparations of recombinant human ACC1 (rhACC1) and recombinant human ACC2 (rhACC2). Representative sequences of the recombinant human ACC1 and ACC2 that can be used in the assay are provided in FIG. 1 (SEQ ID NO. 1) and FIG. 2 (SEQ. ID NO. 2), respectively.
# [3] Preparation of rhACC2. Human ACC2 inhibition was measured using purified recombinant human ACC2 (hrACC2). Briefly, a full length Cytomax clone of ACC2 was purchased from Cambridge Bioscience Limited and was sequenced and subcloned into PcDNA5 FRT TO-TOPO (Invitrogen, Carlsbad, Calif.). The ACC2 was expressed in CHO cells by tetracycline induction and harvested in 5 liters of DMEM/F12 with glutamine, biotin, hygromycin and blasticidin with 1 μg/mL tetracycline (Invitrogen, Carlsbad, Calif.). The conditioned medium containing ACC2 was then applied to a Softlink Soft Release Avidin column (Promega, Madison, Wis.) and eluted with 5 mM biotin. 4 mgs of ACC2 were eluted at a concentration of 0.05 mg/mL (determined by A280) with an estimated purity of 95% ([…]). The purified ACC2 was dialyzed in 50 mM Tris, 200 mM NaCl, 4 mM DTT, 2 mM EDTA, and 5% glycerol. The pooled protein was frozen and stored at −80° C., with no loss of activity upon thawing. For measurement of ACC2 activity and assessment of ACC2 inhibition, test compounds were dissolved in DMSO and added to the rhACC2 enzyme as a 5× stock with a final DMSO concentration of 1%.
# [4] Measurement of human ACC2 inhibition. hACC2 was assayed in a Costar #3676 (Costar, Cambridge, Mass.) 384-well plate using the Transcreener ADP detection FP assay kit (Bellbrook Labs, Madison, Wisconsin) using the manufacturer's recommended conditions for a 50 uM ATP reaction. The final conditions for the assay were 50 mM HEPES, pH 7.2, 5 mM MgCl2, 5 mM tripotassium citrate, 2 mM DTT, 0.1 mg/mL BSA, 30 μM acetyl-CoA, 50 μM ATP, and 8 mM KHCO3 Typically, a 10 μl reaction was run for 50 min at 25° C., and 10 μl of Transcreener stop and detect buffer was added and the combination incubated at room temp for an additional 1 hour. The data was acquired on an Envision Fluorescence reader (Perkinelmer) using a 620 excitation Cy5 FP general dual mirror, 620 excitation Cy5 FP filter, 688 emission (S) and a 688 (P) emission filter.
IC50 [1],IC50 [2],Compound
399 nM,125 nM,"CC(C)n1ncc2c1C(=O)C(C)C1(CCN(C(=O)c3ccc4[nH]ncc4c3)CC1)C2 (racemic) [Example 4A-1, 1′-(1H-indazole-5-carbonyl)-1-isopropyl-6-methyl-4,6-dihydrospiro[indazole-5,4′-piperidin]-7(1H)-one]"
4480 nM,866 nM,"CC(C)n1ncc2c1C(=O)C(C)C1(CCN(C(=O)c3ccc4[nH]ncc4c3)CC1)C2 (single isomer, unassigned; (+)) [Example 5A-1, (+)-1′-(1H-indazole-5-carbonyl)-1-isopropyl-6-methyl-4,6-dihydrospiro[indazole-5,4′-piperidin]-7(1H)-one]"
175 nM,80.7 nM,"CC(C)n1ncc2c1C(=O)C(C)C1(CCN(C(=O)c3ccc4[nH]ncc4c3)CC1)C2 (single isomer, unassigned; (-)) [Example 5A-2, (−)-1′-(1H-indazole-5-carbonyl)-1-isopropyl-6-methyl-4,6-dihydrospiro[indazole-5,4′-piperidin]-7(1H)-one]"
267 nM,68 nM,"Cc1cc(C(=O)N2CCC3(CC2)CC(=O)c2c(cnn2C(C)C)C3)ccc1Cl [Example 1A-1, 1-isopropyl-1′-(4-chloro-3-methylbenzoyl)-4,6-dihydrospiro[indazole-5,4′-piperidin]-7(1H)-one]"
444 nM,62.3 nM,Cc1cc(C(=O)N2CCC3(CC2)CC(=O)c2c(cnn2C(C)(C)C)C3)ccc1Cl [Example 1A-2]
646 nM,155 nM,Cc1cc(C(=O)N2CCC3(CC2)CC(=O)c2c(cnn2C2CCC2)C3)ccc1Cl [Example 1A-3]
2980 nM,719 nM,Cc1cc(C(=O)N2CCC3(CC2)CC(=O)c2c(cnn2Cc2ccccc2)C3)ccc1Cl [Example 1A-4]
800 nM,127 nM,Cc1cc(C(=O)N2CCC3(CC2)CC(=O)c2c(cnn2C2CCOC2)C3)ccc1Cl (centres unmarked) [Example 1A-5]
282 nM,69.7 nM,"CC(C)n1ncc2c1C(=O)CC1(CCN(C(=O)c3cnc4[nH]ncc4c3)CC1)C2 [Example 2A-1, 1-Isopropyl-1′-(1H-pyrazolo[3,4-b]pyridine-5-carbonyl)-4,6-dihydrospiro[indazole-5,4′-piperidin]-7(1H)-one]"
8300 nM,3570 nM,Cc1cc(C(=O)N2CCC3(CC2)CC(=O)c2c(cnn2CC2CCCO2)C3)ccc1Cl (centres unmarked) [Example 2A-2]
2720 nM,680 nM,COCC(C)n1ncc2c1C(=O)CC1(CCN(C(=O)c3ccc(Cl)c(C)c3)CC1)C2 (centres unmarked) [Example 2A-3]
8730 nM,2530 nM,Cc1cc(C(=O)N2CCC3(CC2)CC(=O)c2c(cnn2C)C3)ccc1Cl [Example 2A-4]
1220 nM,481 nM,Cc1cc(C(=O)N2CCC3(CC2)CC(=O)c2c(cnn2CC(C)C)C3)ccc1Cl [Example 2A-5]
640 nM,88.8 nM,Cc1cc(C(=O)N2CCC3(CC2)CC(=O)c2c(cnn2C(C)c2ccccc2)C3)ccc1Cl (centres unmarked) [Example 2A-6]
4340 nM,965 nM,CCn1ncc2c1C(=O)CC1(CCN(C(=O)c3ccc(Cl)c(C)c3)CC1)C2 [Example 2A-7]
16000 nM,4890 nM,COCCn1ncc2c1C(=O)CC1(CCN(C(=O)c3ccc(Cl)c(C)c3)CC1)C2 [Example 2A-8]
4260 nM,1850 nM,CCCn1ncc2c1C(=O)CC1(CCN(C(=O)c3ccc(Cl)c(C)c3)CC1)C2 [Example 2A-9]

IC50 [1],IC50 [2],Compound
188 nM,29.2 nM,CC(C)n1ncc2c1C(=O)CC1(CCN(C(=O)c3ccc4cnn(C)c4c3)CC1)C2 [Example 2A-10]
261 nM,33.5 nM,CC(C)n1ncc2c1C(=O)CC1(CCN(C(=O)c3ccc4c(cnn4C)c3)CC1)C2 [Example 2A-11]
95.3 nM,28 nM,CC(C)n1ncc2c1C(=O)CC1(CCN(C(=O)c3ccc4cc[nH]c(=O)c4c3)CC1)C2 [Example 2A-13]
172 nM,27 nM,CC(C)n1ncc2c1C(=O)CC1(CCN(C(=O)c3ccc4c(=O)[nH]ccc4c3)CC1)C2 [Example 2A-14]
2030 nM,775 nM,Cc1ncc(C(=O)N2CCC3(CC2)CC(=O)c2c(cnn2C(C)C)C3)c(N)n1 [Example 2A-15]
46.9 nM,13.6 nM,CC(C)n1ncc2c1C(=O)CC1(CCN(C(=O)c3cc(Cl)c4[nH]ncc4c3)CC1)C2 [Example 2A-16]
1010 nM,458 nM,Cc1cc(N(C)C)ncc1C(=O)N1CCC2(CC1)CC(=O)c1c(cnn1C(C)C)C2 [Example 2A-18]
57.4 nM,22.1 nM,CC(C)n1ncc2c1C(=O)CC1(CCN(C(=O)c3cnc4cc[nH]c4c3)CC1)C2 [Example 2A-19]
121 nM,93 nM,CC(C)n1ncc2c1C(=O)CC1(CCN(C(=O)c3cc4cccnc4[nH]3)CC1)C2 [Example 2A-20]
93.3 nM,32.7 nM,Cc1nc2ccc(C(=O)N3CCC4(CC3)CC(=O)c3c(cnn3C(C)(C)C)C4)cc2[nH]1 [Example 2A-21]
1890 nM,334 nM,CC(C)(C)n1ncc2c1C(=O)CC1(CCN(C(=O)c3ccc4c(=O)[nH]ccc4c3)CC1)C2 [Example 2A-22]
32.3 nM,23.3 nM,CC(C)(C)n1ncc2c1C(=O)CC1(CCN(C(=O)c3cnc4[nH]ccc4c3)CC1)C2 [Example 2A-23]
30.7 nM,15.8 nM,CC(C)(C)n1ncc2c1C(=O)CC1(CCN(C(=O)c3cnc4cc[nH]c4c3)CC1)C2 [Example 2A-24]
69.5 nM,22.7 nM,CC(C)(C)n1ncc2c1C(=O)CC1(CCN(C(=O)c3cc(Cl)c4[nH]ncc4c3)CC1)C2 [Example 2A-25]
308 nM,91.8 nM,CC(C)n1ncc2c1C(=O)CC1(CCN(C(=O)c3ccc4c(c3)CC(=O)N4)CC1)C2 [Example 2A-27]
47.8 nM,17 nM,CC(C)(C)n1ncc2c1C(=O)CC1(CCN(C(=O)c3ccc4[nH]ncc4c3)CC1)C2 [Example 2A-28]
24.1 nM,9.81 nM,CC(C)(C)n1ncc2c1C(=O)CC1(CCN(C(=O)c3ccc4[nH]c(=O)[nH]c4c3)CC1)C2 [Example 2A-29]
